Laboratory results from patent US12077503B2, “Substituted cyclic amides and their use as herbicides” (FMC CORPORATION, priority 2015, dated 2024).

What was measured:
Type in all cases: in vivo
[1] = system: Kochia (Kochia scoparia); experiment: Test A preemergence
Outline: (§1)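 Visual injury, scored on a 0–100 scale relative to untreated controls, was recorded about 10 d after application. Treatments were a preemergence soil spray over planted seeds or a postemergence spray on plants at the one- to two-leaf stage, 2 to 10 cm tall, all in loam soil–sand blend in the greenhouse.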

[2] = system: barnyardgrass (Echinochloa crus-galli); experiment: Test A preemergence
Outline: as §1

[3] = system: giant foxtail (Setaria faberii); experiment: Test A preemergence
Outline: as §1

[4] = system: pigweed (Amaranthus retroflexus); experiment: Test A preemergence
[5] = system: ragweed (common ragweed, Ambrosia elatior); experiment: Test A preemergence
Outline: as §1

[6] = system: ryegrass, Italian (Italian ryegrass, Lolium multiflorum); experiment: Test A preemergence
Outline: as §1

[7] = system: Galium (catchweed bedstraw, Galium aparine); experiment: Test A postemergence
Outline: as §1

[8] = system: Kochia (Kochia scoparia); experiment: Test A postemergence
Outline: as §1

[9] = system: barnyardgrass (Echinochloa crus-galli); experiment: Test A postemergence
Outline: as §1

[10] = system: blackgrass (Alopecurus myosuroides); experiment: Test A postemergence
Outline: as §1

[11] = system: corn (Zea mays); experiment: Test A postemergence
Outline: as §1

[12] = system: giant foxtail (Setaria faberii); experiment: Test A postemergence
Outline: as §1

[13] = system: pigweed (Amaranthus retroflexus); experiment: Test A postemergence
Outline: as §1

[14] = system: ragweed (common ragweed, Ambrosia elatior); experiment: Test A postemergence
Outline: as §1

[15] = system: ryegrass, Italian (Italian ryegrass, Lolium multiflorum); experiment: Test A postemergence
Outline: as §1

[16] = system: wheat (Triticum aestivum); experiment: Test A postemergence
Outline: as §1

[17] = system: barnyardgrass (Echinochloa crus-galli); experiment: Test B flooded paddy test; settings: Flood, 250 g ai/ha
Outline: (§2)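 Percent control, visually estimated after 13–15 d in the greenhouse on a 0–100 basis, compares treated pots with untreated ones; compound was put into paddy water 3 cm above the soil when plants had two leaves.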

[18] = system: ducksalad (Heteranthera limosa); experiment: Test B flooded paddy test; settings: Flood, 250 g ai/ha
Outline: as §2

[19] = system: rice (Oryra sativa); experiment: Test B flooded paddy test; settings: Flood, 250 g ai/ha
Outline: as §2

[20] = system: sedge, umbrella (small-flower umbrella sedge, Cyperus difformis); experiment: Test B flooded paddy test; settings: Flood, 250 g ai/ha
Outline: as §2

[21] = 125 g ai/ha, preemergence, 0 to 100 scale (0 no effect, 100 complete control)
[22] = Preemergence, 500 g ai/ha, 0 is no effect, 100 is complete control
[23] = 125 g ai/ha, postemergence, visual injury rating on 0 to 100 scale (0 no effect, 100 complete control), approx. 10 d
[24] = 500 g ai/ha, postemergence, 0 to 100 scale, 0 no effect, 100 complete control
[25] = Postemergence, 125 g ai/ha, visual injury, 0 to 100 scale (0 no effect, 100 complete control), approx. 10 d
[26] = 0 to 100 scale where 0 is no effect and 100 is complete control, 13 to 15 d

CC(C)Oc1ccc([C@H]2CN(C)C(=O)[C@@H]2C(=O)Nc2ccccc2F)cc1 [Compound 952]
90%: pest or weed control at 500 g/ha ([2]; Echinochloa crus-galli, pre-emergence, 240 h, 500 g ai/ha, preemergence, visual injury rating about 10 d after treatment, 0 to 100 scale (0 no effect, 100 complete control), read-out: Barnyardgrass plant response rating) | pest or weed control at 500 g/ha ([3]; Setaria faberi, pre-emergence, 240 h, 500 g ai/ha, preemergence, visual injury rating about 10 d after treatment, 0 to 100 scale (0 no effect, 100 complete control), read-out: Foxtail, Giant plant response rating)
60%: pest or weed control at 125 g/ha ([9]; Echinochloa crus-galli, post-emergence, 240 h, 125 g ai/ha, Postemergence, visual injury after approximately 10 d, 0 to 100 scale where 0 is no effect and 100 is complete control, read-out: Plant response rating, Barnyardgrass)
80%: pest or weed control at 125 g/ha ([3]; Setaria faberi, pre-emergence, 240 h, 125 g ai/ha, Preemergence, visual injury rating after approximately 10 d, read-out: Foxtail, Giant plant response rating (0 to 100 scale, 0 is no effect, 100 is complete control))
30%: pest or weed control at 125 g/ha ([1]; Bassia scoparia, pre-emergence, 240 h, 125 g ai/ha, Preemergence, visual injury rating after approximately 10 d, read-out: Kochia plant response rating (0 to 100 scale, 0 is no effect, 100 is complete control)) | pest or weed control at 500 g/ha ([1]; Bassia scoparia, pre-emergence, 240 h, 500 g ai/ha, preemergence, visual injury rating about 10 d after treatment, 0 to 100 scale (0 no effect, 100 complete control), read-out: Kochia plant response rating)
50%: pest or weed control at 125 g/ha ([2]; Echinochloa crus-galli, pre-emergence, 240 h, 125 g ai/ha, Preemergence, visual injury rating after approximately 10 d, read-out: Barnyardgrass plant response rating (0 to 100 scale, 0 is no effect, 100 is complete control)) | pest or weed control at 125 g/ha ([12]; Setaria faberi, post-emergence, 240 h, 125 g ai/ha, Postemergence, visual injury after approximately 10 d, 0 to 100 scale where 0 is no effect and 100 is complete control, read-out: Plant response rating, Foxtail, Giant)
40%: pest or weed control at 250 g/ha ([18]; Heteranthera limosa, scale of 0 to 100 where 0 is no effect and 100 is complete control, read-out: Ducksalad plant response rating)
0%: pest or weed control at 125 g/ha ([4]; Amaranthus retroflexus, pre-emergence, 240 h, 125 g ai/ha, Preemergence, visual injury rating after approximately 10 d, read-out: Pigweed plant response rating (0 to 100 scale, 0 is no effect, 100 is complete control)) | pest or weed control at 500 g/ha ([4]; Amaranthus retroflexus, pre-emergence, 240 h, 500 g ai/ha, preemergence, visual injury rating about 10 d after treatment, 0 to 100 scale (0 no effect, 100 complete control), read-out: Pigweed plant response rating) | pest or weed control at 125 g/ha ([5]; Ambrosia artemisiifolia, pre-emergence, 240 h, 125 g ai/ha, Preemergence, visual injury rating after approximately 10 d, read-out: Ragweed plant response rating (0 to 100 scale, 0 is no effect, 100 is complete control)) | pest or weed control at 500 g/ha ([5]; Ambrosia artemisiifolia, pre-emergence, 240 h, 500 g ai/ha, preemergence, visual injury rating about 10 d after treatment, 0 to 100 scale (0 no effect, 100 complete control), read-out: Ragweed plant response rating) | pest or weed control at 125 g/ha ([6]; Lolium multiflorum, pre-emergence, 240 h, 125 g ai/ha, Preemergence, visual injury rating after approximately 10 d, read-out: Ryegrass, Italian plant response rating (0 to 100 scale, 0 is no effect, 100 is complete control)) | pest or weed control at 500 g/ha ([6]; Lolium multiflorum, pre-emergence, 240 h, 500 g ai/ha, preemergence, visual injury rating about 10 d after treatment, 0 to 100 scale (0 no effect, 100 complete control), read-out: Ryegrass, Italian plant response rating) | pest or weed control at 125 g/ha ([7]; Galium, post-emergence, 240 h, 125 g ai/ha, Postemergence, visual injury after approximately 10 d, 0 to 100 scale where 0 is no effect and 100 is complete control, read-out: Plant response rating, Galium) | pest or weed control at 125 g/ha ([8]; Bassia scoparia, post-emergence, 240 h, 125 g ai/ha, Postemergence, visual injury after approximately 10 d, 0 to 100 scale where 0 is no effect and 100 is complete control, read-out: Plant response rating, Kochia) | pest or weed control at 125 g/ha ([10]; Alopecurus myosuroides, post-emergence, 240 h, 125 g ai/ha, Postemergence, visual injury after approximately 10 d, 0 to 100 scale where 0 is no effect and 100 is complete control, read-out: Plant response rating, Blackgrass) | Corn plant response rating (crop injury, 0 = no effect, 100 = complete kill) at 125 g/ha ([11]; Zea mays, post-emergence, 240 h, 125 g ai/ha, Postemergence, visual injury after approximately 10 d, 0 to 100 scale where 0 is no effect and 100 is complete control) | pest or weed control at 125 g/ha ([13]; Amaranthus retroflexus, post-emergence, 240 h, 125 g ai/ha, Postemergence, visual injury after approximately 10 d, 0 to 100 scale where 0 is no effect and 100 is complete control, read-out: Plant response rating, Pigweed) | pest or weed control at 125 g/ha ([14]; Ambrosia artemisiifolia, post-emergence, 240 h, 125 g ai/ha, Postemergence, visual injury after approximately 10 d, 0 to 100 scale where 0 is no effect and 100 is complete control, read-out: Plant response rating, Ragweed) | pest or weed control at 125 g/ha ([15]; Lolium multiflorum, post-emergence, 240 h, 125 g ai/ha, Postemergence, visual injury after approximately 10 d, 0 to 100 scale where 0 is no effect and 100 is complete control, read-out: Plant response rating, Ryegrass, Italian) | plant injury at 125 g/ha ([16]; Triticum aestivum, post-emergence, 240 h, 125 g ai/ha, Postemergence, visual injury after approximately 10 d, 0 to 100 scale where 0 is no effect and 100 is complete control, read-out: Plant response rating, Wheat) | pest or weed control at 250 g/ha ([17]; Echinochloa crus-galli, scale of 0 to 100 where 0 is no effect and 100 is complete control, read-out: Barnyardgrass plant response rating) | pest or weed control at 250 g/ha ([19]; Oryza sativa, scale of 0 to 100 where 0 is no effect and 100 is complete control, read-out: Rice plant response rating) | pest or weed control at 250 g/ha ([20]; Cyperus difformis, scale of 0 to 100 where 0 is no effect and 100 is complete control, read-out: Sedge, Umbrella plant response rating)

CN1CC(c2ccc(C(F)(F)F)c(F)c2)C(C(=O)Nc2cccc(F)c2F)C1=O (centres unmarked) [Compound 396]
80: Plant response rating, Kochia [1, 21] | Kochia plant response rating (0 to 100 scale) [1, 22] | Plant response rating, Corn [11, 24] | Foxtail, Giant plant response rating [12, 23]
50: Plant response rating, Blackgrass [10, 25] | Ryegrass, Italian plant response rating [15, 23]
60: Plant response rating, Ryegrass, Italian [6, 21] | Galium plant response rating [7, 23] | Plant response rating, Galium [7, 24] | Kochia plant response rating [8, 23] | Plant response rating, Blackgrass [10, 24] | Pigweed plant response rating [13, 23]
30: Plant response rating, Rice [19, 26]
70: Ryegrass, Italian plant response rating (0 to 100 scale) [6, 22] | Plant response rating, Kochia [8, 24] | Plant response rating, Barnyardgrass [9, 25] | Corn plant response rating [11, 23] | Plant response rating, Pigweed [13, 24] | Plant response rating, Ryegrass, Italian [15, 24] | Plant response rating, Wheat [16, 24]
20: Ragweed plant response rating (0 to 100 scale) [5, 22] | Wheat plant response rating [16, 23]
40: Plant response rating, Barnyardgrass [17, 26] | Plant response rating, Ducksalad [18, 26]
90: Plant response rating, Barnyardgrass [2, 21] | Barnyardgrass plant response rating (0 to 100 scale) [2, 22] | Plant response rating, Foxtail, Giant [3, 21] | Foxtail, Giant plant response rating (0 to 100 scale) [3, 22] | Plant response rating, Pigweed [4, 21] | Pigweed plant response rating (0 to 100 scale) [4, 22] | Plant response rating, Barnyardgrass [9, 24] | Plant response rating, Foxtail, Giant [12, 24]
0: Plant response rating, Ragweed [5, 21] | Ragweed plant response rating [14, 23] | Plant response rating, Ragweed [14, 24] | Plant response rating, Sedge, Umbrella [20, 26]
